Reference: US20250066389A1, “HETEROCYCLIC AMIDES AND METHODS OF USING THE SAME” (Rgenta Therapeutics, Inc., priority 2021, published 2025)
pIC50: −log10 of the molar value.

The molecules below were run on PMS1 (assay: Mini-Gene Reporter Assay—PMS1 (firefly luciferase mini-gene reporter transiently transfected into HEK293 cells)). Conditions: Homo sapiens; at 5 uM; mini-gene firefly luciferase reporter in HEK293 cells; read-out: PMS1 % Effect at 5 uM.
Assay type: cell-based
In short: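 HEK293 cells transiently transfected with a mini-gene construct (skipped exon with flanking introns/exons fused to firefly luciferase, pcDNA3.1) are incubated with compounds in duplicate. Exon inclusion raises luminescence; EC50 fitted by Levenberg-Marquardt; effect also scored at 5 μM.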
CCOc1cn2nc(C)cc2cc1C(=O)Nc1cnc(N(C)C[C@H]2CCCN2)nc1 [Compound 575] was tested, and the activation at 5 µM was < 50%.
CCOc1cn2nc(C)cc2cc1C(=O)Nc1cnc(N(C)C[C@@H]2CCCN2)nc1 [Compound 576] was tested, and the activation at 5 µM was < 50%.
For CCOc1cn2nc(C)cc2cc1C(=O)Nc1cnc(N2CCOC3(CCNC3)C2)nc1 (stereo not drawn) [Compound 577], the activation at 5 µM was < 50%.
In the case of CCOc1cn2nc(C)cc2cc1C(=O)Nc1cnc(N2CCCC3(CCNC3)C2)nc1 (stereo not drawn) [Compound 578], the activation at 5 µM was < 50%.
In the case of CCOc1cn2nc(C)cc2cc1C(=O)Nc1cnc(N2CCC3(CCCN3)CC2)nc1 [Compound 579], the activation at 5 µM was > 75%.
With CCOc1cn2nc(C)cc2cc1C(=O)Nc1cnc(N(C)CC2CCCN2)nc1 (stereo not drawn) [Compound 581] the activation at 5 µM was < 50%.
CCOc1cn2nc(C)cc2cc1C(=O)Nc1cnc(N(C)CCN2CCNCC2)nc1 [Compound 582] was tested, and the activation at 5 µM was < 50%.
With CCOc1cn2nc(C)cc2cc1C(=O)Nc1cnc(N(C)CC2CCNC2)nc1 (stereo not drawn) [Compound 583] the activation at 5 µM was < 50%.
CCOc1cn2nc(C)cc2cc1C(=O)Nc1cnc(N2CCC3(CC2)CNCCO3)nc1 [Compound 584] was tested, and the activation at 5 µM was < 50%.
In the case of CCOc1cn2nc(C)cc2cc1C(=O)Nc1cnc(N2CCOC3(CCNCC3)C2)nc1 [Compound 587], the activation at 5 µM was < 50%.
With CCOc1cn2nc(C)cc2cc1C(=O)Nc1cnc(NCCC2CCCCN2)nc1 (stereo not drawn) [Compound 588] the activation at 5 µM was < 50%.
With CCOc1cn2nc(C)cc2cc1C(=O)Nc1cnc(N2C[C@H]3CNC[C@H]3C2)nc1 [Compound 590] the activation at 5 µM was > 75%.
For CCOc1cn2nc(C)cc2cc1C(=O)Nc1cnc(N2CCCC(NC)C2)nc1 (stereo not drawn) [Compound 591], the activation at 5 µM was < 50%.
CCOc1cn2nc(C)cc2cc1C(=O)Nc1cnc(NCCNC)nc1 [Compound 592] was tested, and the activation at 5 µM was < 50%.
With CCOc1cn2nc(C)cc2cc1C(=O)Nc1cnc(NC[C@H]2CCCN2)nc1 [Compound 593] the activation at 5 µM was < 50%.
For CCOc1cn2nc(C)cc2cc1C(=O)Nc1cnc(N2CCNCC2)nc1 [Compound 594], the activation at 5 µM was 50 to 75%.
In the case of CCOc1cn2nc(C)cc2cc1C(=O)Nc1cnc(N2CC(N)C2)nc1 [Compound 595], the activation at 5 µM was < 50%.
CCOc1cn2nc(C)cc2cc1C(=O)Nc1cnc(N2CCN[C@@H](C)C2)nc1 [Compound 596] showed an activation at 5 µM of 50 to 75%.
In the case of CCOc1cn2nc(C)cc2cc1C(=O)Nc1cnc(N2CCC(N)CC2)nc1 [Compound 597], the activation at 5 µM was < 50%.
For CCOc1cn2nc(C)cc2cc1C(=O)Nc1cnc(NCC2CCCNC2)nc1 (stereo not drawn) [Compound 598], the activation at 5 µM was < 50%.
For CCOc1cn2nc(C)cc2cc1C(=O)Nc1cnc(N(C)CCNC)nc1 [Compound 599], the activation at 5 µM was < 50%.
For CCOc1cn2nc(C)cc2cc1C(=O)Nc1cnc(N2CCCNCC2)nc1 [Compound 600], the activation at 5 µM was < 50%.
For CCOc1cn2nc(C)cc2cc1C(=O)Nc1cnc(N2CCCC(CCC3CCCNC3)C2)nc1 (stereo not drawn) [Compound 603], the activation at 5 µM was < 50%.
In the case of CCOc1cn2nc(C)cc2cc1C(=O)Nc1cnc(N2CCNCC3(CC3)C2)nc1 [Compound 604], the activation at 5 µM was < 50%.
For CCOc1cn2nc(C)cc2cc1C(=O)Nc1cnc(N2CC3C4CCC(NC4)C3C2)nc1 (stereo not drawn) [Compound 605], the activation at 5 µM was < 50%.
In the case of CCOc1cn2nc(C)cc2cc1C(=O)Nc1cnc(N2CCC(C3NCC3(C)C)CC2)nc1 (stereo not drawn) [Compound 606], the activation at 5 µM was < 50%.
In the case of CCOc1cn2nc(C)cc2cc1C(=O)Nc1cnc(N2CCC(CCN3CCNCC3)CC2)nc1 [Compound 607], the activation at 5 µM was < 50%.
For CCOc1cn2nc(C)cc2cc1C(=O)Nc1cnc(N2CCNC(CS(C)(=O)=O)C2)nc1 (stereo not drawn) [Compound 608], the activation at 5 µM was < 50%.
CCOc1cn2nc(C)cc2cc1C(=O)Nc1cnc(N2CCC(C(O)C3CCNCC3)CC2)nc1 (stereo not drawn) [Compound 609] was tested, and the activation at 5 µM was < 50%.
For CCOc1cn2nc(C)cc2cc1C(=O)Nc1cnc(N2CCC(C3CCCNC3)CC2)nc1 (stereo not drawn) [Compound 610], the activation at 5 µM was < 50%.
For CCOc1cn2nc(C)cc2cc1C(=O)Nc1cnc(N2CCC3CCNCC3C2)nc1 (stereo not drawn) [Compound 611], the activation at 5 µM was < 50%.
For CCOc1cn2nc(C)cc2cc1C(=O)Nc1cnc(N2CC(NC)C3(CC3)C2)nc1 (stereo not drawn) [Compound 612], the activation at 5 µM was < 50%.
With CCOc1cn2nc(C)cc2cc1C(=O)Nc1cnc(N2CCOC3(CCCNC3)C2)nc1 (stereo not drawn) [Compound 613] the activation at 5 µM was < 50%.
With CCOc1cn2nc(C)cc2cc1C(=O)Nc1cnc(N2CCC(CC[C@@H]3CCCN3)CC2)nc1 [Compound 615] the activation at 5 µM was < 50%.
CCOc1cn2nc(C)cc2cc1C(=O)Nc1cnc(N2CC[C@@H](C)[C@@H](NC)C2)nc1 [Compound 617] was tested, and the activation at 5 µM was < 50%.
In the case of CCOc1cn2nc(C)cc2cc1C(=O)Nc1cnc(N2CCC(COC3CCNC3)CC2)nc1 (stereo not drawn) [Compound 618], the activation at 5 µM was < 50%.
With CCOc1cn2nc(C)cc2cc1C(=O)Nc1cnc(N2CC[C@@H]3CNC[C@@H]3CC2)nc1 [Compound 619] the activation at 5 µM was < 50%.
With CCNCC1CCN(c2ncc(NC(=O)c3cc4cc(C)nn4cc3OCC)cn2)CC1 [Compound 623] the activation at 5 µM was < 50%.
CCOc1cn2nc(C)cc2cc1C(=O)Nc1cnc(N2CC3(CCNCC3)C2)nc1 [Compound 625] gave an activation at 5 µM of 50 to 75%.
CCOc1cc2nc(C)cn2cc1C(=O)Nc1cnc(N2CCC(N)(CC)CC2)nc1 [Compound 639] was tested, and the activation at 5 µM was > 75%.
Work on CCOc1cc2nc(C)cn2cc1C(=O)Nc1cnc(N2CC(C)NCC2C)nc1 (stereo not drawn) [Compound 644] yielded an activation at 5 µM of 50 to 75%.
Molecule CCOc1cc2nc(C)cn2cc1C(=O)Nc1cnc(N2C[C@H]3CNC[C@H]3C2)nc1 [Compound 646] has an activation at 5 µM of 50 to 75%.
With CCOc1cc2nc(C)cn2cc1C(=O)Nc1cnc(N2CCC(NC)CC2)nc1 [Compound 648] the activation at 5 µM was < 50%.
CCOc1cc2nc(C)cn2cc1C(=O)Nc1cnc(N(C)C2CCNCC2)nc1 [Compound 649] gave an activation at 5 µM of 50 to 75%.
With CCOc1cc2nc(C)cn2cc1C(=O)Nc1cnc(N2CCCNCC2)nc1 [Compound 653] the activation at 5 µM was < 50%.
With CCOc1cc2nc(C)cn2cc1C(=O)Nc1cnc(N2CCNC(C)C2)nc1 (stereo not drawn) [Compound 654] the activation at 5 µM was > 75%.
In the case of CCOc1cc2nc(C)cn2cc1C(=O)Nc1cnc(NCC2CCNC23CCC3)cn1 (stereo not drawn) [Compound 659], the activation at 5 µM was > 75%.
In the case of CCOc1cc2nc(C)cn2cc1C(=O)Nc1cnc(N2CC(O)(CNC)C2)cn1 [Compound 662], the activation at 5 µM was > 75%.
For CCOc1cc2nc(C)cn2cc1C(=O)Nc1cnc(NC2CNC(C)(C)C2)cn1 (stereo not drawn) [Compound 663], the activation at 5 µM was > 75%.
CCOc1cc2nc(C)cn2cc1C(=O)Nc1cnc(N2CC(C3CNC3)C2)cn1 [Compound 664] was tested, and the activation at 5 µM was > 75%.
CCOc1cc2nc(C)cn2cc1C(=O)Nc1cnc(N[C@@H]2CNC[C@@H]2F)cn1 [Compound 666] gave an activation at 5 µM of 50 to 75%.
In the case of CCOc1cc2nc(C)cn2cc1C(=O)Nc1cnc(N2CC(N)C(C)(C)C2)cn1 (stereo not drawn) [Compound 667], the activation at 5 µM was > 75%.
With CCOc1cc2nc(C)cn2cc1C(=O)Nc1cnc(NCCC2CNCC(C)O2)cn1 (stereo not drawn) [Compound 669] the activation at 5 µM was < 50%.

Same assay, conditions: Homo sapiens; mini-gene firefly luciferase reporter in HEK293 cells
Molecule COc1cc2nc(C)cn2cc1C(=O)Nc1ccc(N2CCNCC2C(F)F)cc1F (stereo not drawn) [Compound 627] has a pIC50 of 5.00 to 6.00.
With COc1cc2nc(C)cn2cc1C(=O)Nc1ccc(N2C[C@@H]3C[C@H]2CN3)cc1F [Compound 628] the pIC50 was > 6.00.
In the case of COc1cc2nc(C)cn2cc1C(=O)Nc1ccc(N2CC[C@@H]3NCC[C@@H]3C2)cc1F [Compound 629], the pIC50 was > 6.00.
COc1cc2nc(C)cn2cc1C(=O)Nc1ccc(N2C[C@H]3CNCC[C@H]3C2)cc1F [Compound 630] was tested, and the pIC50 was > 6.00.
